In ChEMBL document CHEMBL1124467, “The binding of benzenesulfonamides to carbonic anhydrase enzyme. A molecular mechanics study and quantitative structure-activity relationships” (J Med Chem, 1989):

molecular target: T1, Carbonic anhydrase (Bos taurus) (UniProt P00921+Q95323+P18915+Q3SZX4); assay: Inhibitory activity against Carbonic anhydrase; format: protein assay

Structure (SMILES)	Log II50
NS(=O)(=O)c1ccc(Cl)c([N+](=O)[O-])c1	2.13

species: Bos taurus; assay: Inhibitory activity against bovine erythrocyte B enzyme

Structure (SMILES)	Log II50
NS(=O)(=O)c1ccccc1Cl	0.88
CC(=O)c1ccc(S(N)(=O)=O)cc1	1.32
NS(=O)(=O)c1cccc(Cl)c1	1

molecular target: T1, Carbonic anhydrase (Bos taurus)
Description: Inhibitory activity against bovine Carbonic anhydrase

Structure (SMILES)	Log II50
Cc1cccc(S(N)(=O)=O)c1	0.66
NS(=O)(=O)c1ccc(Cl)cc1	1.08
NS(=O)(=O)c1ccc(Cl)c(Cl)c1	1.76
NS(=O)(=O)c1cccc([N+](=O)[O-])c1	1.25
CNc1ccc(S(N)(=O)=O)cc1	0.18
Cc1ccccc1S(N)(=O)=O	0.16
COc1ccc(S(N)(=O)=O)cc1	0.71
Cc1ccc(S(N)(=O)=O)cc1	0.78
NS(=O)(=O)c1ccccc1	0.58
Cc1ccc(S(N)(=O)=O)cc1C	0.48
NS(=O)(=O)c1ccc([N+](=O)[O-])c(Cl)c1	1.74
CC(=O)Nc1ccc(S(N)(=O)=O)cc1	1.48
